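Test compounds were applied to cells in 96-well plates for 48 hours at 5 doses. GI50: concentration for 50% inhibition of growth. TGI marks complete inhibition of growth.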

Among the test systems are 786-0 renal; SF-539 CNS; SNB-75 CNS; SR leukemia; RXF 393 renal; NCI-H226 lung; MOLT-4 leukemia; BT-549 breast; MALME-3M melanoma; SK-MEL-2 melanoma.
Common to all, as to assay: NCI anticancer screen, dose series, 48 h

As for `COc1cccc2c1nc1cccc(OC)c1[n+]2[O-]`, the GI50 is 3.61 µM in the assay with 786-0 renal; 3.91 µM in the assay with SF-539 CNS; 2.49 µM in the assay with SNB-75 CNS; 0.568 µM with SR leukemia; 4.36 µM in the assay on RXF 393 renal; 10.6 µM in the assay on NCI-H226 lung. Also, the GI50 with MOLT-4 leukemia was 0.46 µM; in the assay on BT-549 breast, 5.94 µM; in the assay with MALME-3M melanoma it was 12.8 µM; in the assay on SK-MEL-2 melanoma it was 5.44 µM. Further, the TGI turned out to be 15 µM in the assay on 786-0 renal; 17.3 µM in the assay on SF-539 CNS; 14.5 µM with SNB-75 CNS; 4.17 µM with SR leukemia; 22.1 µM in the assay on RXF 393 renal; 23.8 µM with NCI-H226 lung. For the same molecule, the TGI in the assay on MOLT-4 leukemia came out at 2.62 µM; in the assay with BT-549 breast, 28.2 µM; in the assay on MALME-3M melanoma it was 30.3 µM; in the assay on SK-MEL-2 melanoma, 18.4 µM.
As for `C/C(=C1/N=C(c2ccccc2)OC1=O)c1ccc(C)cc1`, the TGI with 786-0 renal, in the assay with SF-539 CNS, with SR leukemia, in the assay with RXF 393 renal, in the assay with NCI-H226 lung and in the assay with MOLT-4 leukemia was over 100 µM throughout. In addition, the TGI in the assay on BT-549 breast, in the assay with MALME-3M melanoma and in the assay on SK-MEL-2 melanoma was over 100 µM in each case.
Turning to `COc1cc(CNc2nc3cc(N)cc(N)c3nc2-c2ccccc2)cc(OC)c1OC`, the GI50 in the assay on 786-0 renal is 15.6 µM; in the assay on SF-539 CNS, 1.34 µM; with SNB-75 CNS, 0.813 µM; in the assay on SR leukemia it was 0.897 µM; with RXF 393 renal it was 7.47 µM; with NCI-H226 lung, 9.96 µM. Besides, the GI50 is 12.4 µM in the assay on MOLT-4 leukemia, 3.84 µM in the assay on BT-549 breast and 16.1 µM in the assay on SK-MEL-2 melanoma. Moreover, the TGI in the assay on 786-0 renal is over 50 µM; with SF-539 CNS, 8.01 µM; with SNB-75 CNS, 14.6 µM; in the assay with SR leukemia, over 50 µM; in the assay with RXF 393 renal, 19.9 µM; in the assay on NCI-H226 lung, 22.4 µM. Also, the TGI in the assay with MOLT-4 leukemia was over 50 µM; with BT-549 breast it was 11.2 µM; in the assay with SK-MEL-2 melanoma, over 50 µM.
`NC(=O)c1ccc2nc(-c3ccc(C4(N)CCC4)cc3)c(-c3ccccc3)n2n1`: the GI50 was 1.23 µM in the assay on 786-0 renal; 2.13 µM in the assay on SF-539 CNS; 0.0922 µM in the assay with SNB-75 CNS; 7.65 µM in the assay on SR leukemia; 0.335 µM in the assay with RXF 393 renal; 12.7 µM in the assay on NCI-H226 lung. Besides, the GI50 is 0.741 µM with MOLT-4 leukemia, 1.28 µM in the assay on BT-549 breast, 1.19 µM in the assay on MALME-3M melanoma and 15.2 µM in the assay with SK-MEL-2 melanoma. Also, the TGI in the assay on 786-0 renal was 12.2 µM; with SF-539 CNS it was 13.7 µM; in the assay on SNB-75 CNS, 5.21 µM; in the assay with SR leukemia, 31.2 µM; in the assay with RXF 393 renal it was 4.13 µM; in the assay with NCI-H226 lung, 32.5 µM. The TGI in the assay on MOLT-4 leukemia was determined as 19.2 µM; in the assay with BT-549 breast it was 14.5 µM; in the assay with MALME-3M melanoma, 19.7 µM; with SK-MEL-2 melanoma, 31.5 µM.
Regarding `CN1C(=O)N(C)C2C1NN=c1s/c(=C\c3c[nH]c4ccccc34)c(=O)n12` (stereo not given), the GI50 was 0.125 µM in the assay with 786-0 renal; 0.0301 µM in the assay with SF-539 CNS; under 0.0158 µM with SNB-75 CNS; 0.0345 µM in the assay on SR leukemia; 0.143 µM in the assay on NCI-H226 lung; 0.0644 µM in the assay with MOLT-4 leukemia. Also, the GI50 is 0.0557 µM in the assay on BT-549 breast, 0.0689 µM in the assay on MALME-3M melanoma and 34.6 µM in the assay with SK-MEL-2 melanoma. The TGI in the assay with 786-0 renal is over 100 µM; in the assay with SF-539 CNS, 55.9 µM; with SR leukemia it was over 100 µM; in the assay on NCI-H226 lung, over 100 µM; in the assay with MOLT-4 leukemia, over 100 µM; in the assay with BT-549 breast, over 100 µM. Besides, the TGI with MALME-3M melanoma and in the assay with SK-MEL-2 melanoma was over 100 µM throughout.
Turning to `CN(C)c1ccc(/C=C/c2ccnc3ccc4ccccc4c23)cc1`, the TGI was over 100 µM with 786-0 renal; over 100 µM in the assay on SF-539 CNS; 70.4 µM with SNB-75 CNS; over 100 µM in the assay with SR leukemia; 44.9 µM in the assay with RXF 393 renal; over 100 µM with MOLT-4 leukemia. In addition, the TGI was over 100 µM in the assay with BT-549 breast, 58.5 µM with MALME-3M melanoma and over 100 µM in the assay with SK-MEL-2 melanoma.
Turning to `FC(F)(F)c1[nH]ncc1-c1nc2c(N3CCCCC3)cc3[nH]ncc3c2c2c1CCCC2`, the GI50 with 786-0 renal is 0.905 µM; in the assay with SF-539 CNS, 0.567 µM; with SNB-75 CNS, 0.533 µM; in the assay on SR leukemia, 0.235 µM; with RXF 393 renal, 0.395 µM; with MOLT-4 leukemia, 0.744 µM. Also, the GI50 in the assay with BT-549 breast was 0.643 µM; with MALME-3M melanoma, 0.843 µM; in the assay on SK-MEL-2 melanoma, 0.968 µM. For the same molecule, the TGI was 2.93 µM in the assay with 786-0 renal; 1.22 µM in the assay with SF-539 CNS; 1.2 µM in the assay with SNB-75 CNS; over 50 µM in the assay with SR leukemia; 1.07 µM in the assay with RXF 393 renal; 2.78 µM with MOLT-4 leukemia. Besides, the values for the TGI in the assay with BT-549 breast, in the assay on MALME-3M melanoma and with SK-MEL-2 melanoma were 1.37 µM, 2.14 µM and 2.31 µM, respectively.
Turning to `COc1cc(-c2cc(-c3nc4cc(Cl)c(Cl)cc4[nH]3)[nH]n2)cc(OC)c1OC`, the GI50 is 4.09 µM with 786-0 renal; 3.28 µM in the assay with SF-539 CNS; 3.12 µM in the assay on SNB-75 CNS; 3.89 µM in the assay on SR leukemia; 3.17 µM in the assay with RXF 393 renal; 2.29 µM with NCI-H226 lung. Further, the GI50 is 2.49 µM in the assay on MOLT-4 leukemia, 2.84 µM with BT-549 breast and 2.7 µM in the assay with MALME-3M melanoma. For the same molecule, the TGI in the assay with 786-0 renal was determined as 16.2 µM; in the assay on SF-539 CNS it was 13.4 µM; in the assay with SNB-75 CNS, 14.2 µM; with SR leukemia, 20.6 µM; in the assay with RXF 393 renal, 13.5 µM; with NCI-H226 lung, 8.8 µM. Also, the figures for the TGI in the assay with MOLT-4 leukemia, with BT-549 breast and with MALME-3M melanoma were 6.29 µM, 8.02 µM and 12.4 µM, respectively.
Consider `COc1cc([N+](=O)[O-])c(S(=O)(=O)O)cc1N`, for which the TGI in the assay with 786-0 renal, in the assay on SF-539 CNS, with SNB-75 CNS, with SR leukemia, in the assay on NCI-H226 lung and with MOLT-4 leukemia was over 100 µM throughout. The TGI in the assay with BT-549 breast and with SK-MEL-2 melanoma was over 100 µM throughout.
`Cc1coc2c1CC1OC1(C)CCC1OC1(C)C2` (stereo not given): the TGI in the assay with 786-0 renal, in the assay on SF-539 CNS, in the assay on SNB-75 CNS, in the assay with SR leukemia, in the assay with NCI-H226 lung and with MOLT-4 leukemia was over 100 µM throughout. Further, the TGI with BT-549 breast and in the assay on SK-MEL-2 melanoma was over 100 µM throughout.
On to `COc1ccc2c(c1)C(=O)c1c-2c(OCCN(C)C)nc2cc(OC)ccc12`, for which the GI50 in the assay on 786-0 renal was 1.46 µM; in the assay on SF-539 CNS, 1.61 µM; in the assay on SNB-75 CNS, 1.99 µM; in the assay on SR leukemia it was 0.264 µM; with RXF 393 renal, 1.54 µM; in the assay on NCI-H226 lung, 1.33 µM. Moreover, the GI50 is 0.32 µM in the assay on MOLT-4 leukemia, 4.03 µM in the assay with BT-549 breast and 3.31 µM with SK-MEL-2 melanoma. The TGI turned out to be 2.84 µM with 786-0 renal; 3.32 µM in the assay on SF-539 CNS; 9.02 µM in the assay with SNB-75 CNS; 1.42 µM in the assay with SR leukemia; 4.52 µM in the assay on RXF 393 renal; 3.32 µM in the assay on NCI-H226 lung. The TGI with MOLT-4 leukemia was found to be 1.2 µM; in the assay on BT-549 breast it was 15.2 µM; in the assay with SK-MEL-2 melanoma it was 10.3 µM.
On to `CCOC(=O)/C(=C/c1ccccc1)C(=O)c1ccccc1`, for which the GI50 is 3.02 µM in the assay with 786-0 renal; 2.63 µM with SF-539 CNS; 2.95 µM in the assay on SNB-75 CNS; 3.43 µM in the assay on SR leukemia; 2.04 µM in the assay with RXF 393 renal; 3.48 µM in the assay with NCI-H226 lung. Besides, the GI50 is 6.29 µM with BT-549 breast and 2.94 µM in the assay on MALME-3M melanoma. In addition, the TGI in the assay with 786-0 renal turned out to be 8.09 µM; in the assay with SF-539 CNS, 7.8 µM; in the assay with SNB-75 CNS, 14.5 µM; in the assay on SR leukemia, 18 µM; in the assay with RXF 393 renal, 3.92 µM; with NCI-H226 lung it was 18.9 µM. For the same molecule, the TGI with BT-549 breast was 19.6 µM; with MALME-3M melanoma, 9.09 µM.
In the case of `COc1ccc(C2=CC(c3ccc(Oc4ccnc5cc(Cl)ccc45)c(OC)c3)c3c(nc(OC)[nH]c3=O)N2)cc1` (stereo not given), the GI50 is 18.4 µM in the assay with 786-0 renal; 20.7 µM in the assay with SF-539 CNS; 9.44 µM in the assay on SNB-75 CNS; 2.91 µM in the assay on SR leukemia; 21.8 µM in the assay with RXF 393 renal; 16.4 µM with NCI-H226 lung. Moreover, the figures for the GI50 in the assay on BT-549 breast, in the assay on MALME-3M melanoma and in the assay on SK-MEL-2 melanoma were 3.99 µM, over 100 µM and 31.6 µM, respectively. Besides, the TGI with 786-0 renal was over 100 µM; in the assay on SF-539 CNS, over 100 µM; in the assay on SNB-75 CNS, over 100 µM; with SR leukemia it was 64.6 µM; in the assay on RXF 393 renal, over 100 µM; in the assay on NCI-H226 lung, over 100 µM. Besides, the TGI in the assay with BT-549 breast, in the assay with MALME-3M melanoma and in the assay on SK-MEL-2 melanoma was over 100 µM each time.
For the molecule `C=CCC(N[C@@H](CO)c1ccccc1)c1ccccn1` (stereo not given in full), the GI50 with 786-0 renal was over 100 µM; in the assay with SF-539 CNS, over 100 µM; in the assay with SNB-75 CNS it was over 100 µM; with SR leukemia, 18.3 µM; with RXF 393 renal, over 100 µM; in the assay with NCI-H226 lung, over 100 µM. Also, the GI50 in the assay with BT-549 breast, in the assay with MALME-3M melanoma and in the assay with SK-MEL-2 melanoma was over 100 µM in each case. For the same molecule, the TGI with 786-0 renal, in the assay on SF-539 CNS, in the assay with SNB-75 CNS, with SR leukemia, in the assay with RXF 393 renal and in the assay with NCI-H226 lung was over 100 µM throughout. In addition, the TGI in the assay with BT-549 breast, with MALME-3M melanoma and in the assay on SK-MEL-2 melanoma was over 100 µM throughout.

Values taken from PubChem BioAssay (NCI).
